Data reported in patent publication US10081609B2, “Compounds for inducing proliferation and differentiation of cells, and methods of use thereof” (The Broad Institute, Inc., priority 2013, dated 2018).
Converted amounts (≈) assume the structure as drawn. “And” between values parts separate entries of the source, which are not always exact repeats. Identical values can stand only once. Like-named read-outs stand apart in the source and are kept apart here.

Legend:
[1] = Solubility in PBS with 1% DMSO; format: physicochemical
Procedure: (§1) Selected compounds of the invention were evaluated for physico-chemical properties, including solubility, microsomal stability, protein binding and plasma stability (Table 2).
(§2) Selected compounds of the invention were evaluated for physico-chemical properties, including solubility, microsomal stability, protein binding and plasma stability (Table 3).

[2] = Microsomal stability - Human; format: in vitro ADME; details: for Microsomal stability No NADPH: non-enzymatic microsomal mechanisms only; for Microsomal stability Average: enzymatic and non-enzymatic microsomal mechanisms
Procedure: as §1, §2

Protein binding - Human = format: in vitro ADME
Procedure: as §1, §2

Plasma stability - Human = format: in vitro ADME
Procedure: as §1, §2

[3] = tested on: human primary hepatocytes; assay: High-throughput liver platform, primary screening: hepatocyte proliferation by automated high-content imaging (hepatocyte nuclei numbers); format: cell-based; details: for hit class in the high-throughput liver platform: human primary hepatocytes
Procedure: In order to avoid species-specific differences and cell line mutations, the screen was conducted with human primary hepatocytes. Traditionally, chemical screening on such cells has been hindered by their availability in large quantities as well as their rapid loss of viability and phenotype in vitro. Recent advances in cryopreservation technologies allowed enough primary human cells to be stored for screening; these cells are maintained through co-cultivation with non-parenchymal cells. Co-cultures of primary human hepatocytes with murine embryonic J2-3T3 fibroblasts were recently shown to maintain normal hepatocyte phenotype for weeks. These in vitro platforms consisted of hepatocytes surrounded by a co-planar population of fibroblasts. While sufficient for stabilizing hepatocyte functions in vitro, such platforms may limit normal hepatocyte expansion due to contact inhibition. Thus, for this screen, a sparse population of hepatocytes was co-cultivated on top of a confluent feeder layer of J2-3T3 fibroblasts within 384-well plates (FIG. 1A top). This screening platform stabilized hepatocyte phenotypic functions in vitro (FIG. 1A bottom) and was compatible with two separate high-throughput readouts developed for this screen.
The primary readout detected hepatocyte proliferation via automated high-content imaging. This assay quantified hepatocyte nuclei numbers, using nuclear morphologies to separate the hepatocyte and fibroblast subpopulations that co-exist within the screening platform. When visualized with Hoechst stain, hepatocyte nuclei were smaller and more uniform in texture while fibroblast nuclei were larger and punctated (FIG. 1A bottom). Leveraging this distinction, automated image analyses was developed that utilized machine learning algorithms to classify nuclei types and tabulate hepatocyte nuclei numbers. […] Besides quantifying hepatocyte nuclei that have completed mitosis, the number of nuclei in the process of mitosis were also quantified. Two additional analysis pipelines were built to detect nuclear morphologies consistent with cells undergoing metaphase and anaphase.
FIG. 1B top summarizes the workflow of the screen. Primary screening was done on human primary hepatocytes, preconditioned for seven days by non-parenchymal cells in the screening platform. Upon stabilization in vitro, cultures were treated with the chemical library for 48 hours. All compounds were tested in duplicates, at a single concentration of 15 μM. This single concentration was selected via a pilot screen of ˜2,000 small molecules. All 12,480 small molecules were initially tested on a single donor of cryopreserved hepatocytes (donor a) in order to eliminate noise from donor-to-donor variability. Following compound treatment, media supernatants were collected for functional analyses via ELISA and cultures were fixed in 4% paraformaldehyde for proliferation analyses via imaging.
To identify proliferation hits, three image-based readouts—one each to quantify the number of (1) hepatocyte nuclei in interphase, (2) nuclei in metaphase and (3) nuclei in anaphase—were integrated. z Scores were converted into p values, which were then used to generate ranked lists of compounds based on the efficacy and consistency of effects across the different proliferation readouts. Efficacy was assessed by the product of p values (pprod=pinter×pmeta×pana); consistency was evaluated by the maximum of p values (pmax=max(pinter, pmeta, pana). Compounds were considered proliferation hits if pprod<1×10^−6 and pmax<0.25. Functional hits were selected by an ELISA […]. Compounds with ELISA z>3.0 were eliminated as toxic. 93 compounds met all hit selection criteria, qualifying as Functional Proliferation Hits (FPH); FIG. 1B bottom illustrates the types of compounds that constituted this set of hits.

[4] = tested on: human primary hepatocytes; assay: Expansion of compound-treated human primary hepatocytes (cell counts, Ki67 staining); format: cell-based; details: FIG. 11A
Procedure: The metabolic phenotype of the treated hepatocytes was assessed for canalicular transport. […] Gene expression profiling confirmed that there was no significant differences between FPH-treated and untreated hepatocytes (FIG. 11D).
The ability of compounds 201-212, 215, 217 and 244-258 to expand human primary hepatocytes in vitro was also tested.

iHeps = assay: Differentiation and maturation of iHeps (albumin/AFP ELISA, staining, CYP3A4 activity); format: cell-based, human
Procedure: Undifferentiated iPS cells were cultured on Matrigel, supported by primary mouse embryonic fibroblasts. Once confluent, iPS cells were transitioned to differentiation media, with sequential addition of growth factors (Activin A, BMP-4, bFGF, HGF, and OSM) to guide differentiation, first into endoderm, then into hepatic progenitor cells and finally into iHeps. Compound treatment started on day 21 post initiation of differentiation and acted over a period of 9 days.
Consistent with the literature, untreated cultures had islands that double stain for albumin and the fetal marker AFP, with very little presence of the mature marker […].
The ability of compounds 201-212, 217 and 244-258 to affect the differentiation of iHeps was also tested.

[5] = tested on: transgenic lfabp:GFP zebrafish; assay: Liver development in transgenic lfabp:GFP zebrafish embryos; format: in vivo; details: exposure 24 to 72 hrs post fertilization
Excerpt: The effects of FH1 and PH1 on liver development were examined in transgenic lfabp:GFP zebrafish, in which GFP expression is restricted to the liver. Zebrafish embryos were allowed to develop normally for 24 hrs post fertilization and then exposed to either FH1 or PH1 until 72 hrs post fertilization (FIG. 8A). Livers were visualized by whole-mount fluorescence imaging (FIG. 8B) and lfabp in situ hybridization (FIG. 8C).

[6] = tested on: lfabp:GFP zebrafish embryos; assay: Therapeutic window after a non-fatal dose of APAP in zebrafish embryos (liver size); format: in vivo; details: 5 mM APAP for 24 hrs before 24 hour treatment
Procedure: The current clinical treatment for APAP toxicity is the administration of NAC, which has a limited window of efficacy. To examine the therapeutic window of FH1 and PH1 efficacy, lfabp:GFP zebrafish embryos were allowed to develop normally for 48 hrs post fertilization, and then exposed to a non-fatal dose of 5 mM APAP for 24 hrs before initiation of treatment with FH1 or PH1 for an additional 24 hour period (FIG. 10A).

[7] = tested on: iPS-derived endothelial cells; assay: Differentiation of iPS-derived endothelial cells (nitric oxide); format: cell-based
Procedure: Cells were assayed for nitric oxide (NO), a mature marker for endothelial cells. CB=FPH2, M=FH1, E=PH1, while Null and DMSO are control runs with no additive and vehicle only, respectively.

[8] = aqueous buffer, kinetic from dmso stock, read-out: Solubility Average
[9] = aqueous buffer, kinetic from dmso stock, read-out: Solubility Rep1
[10] = aqueous buffer, kinetic from dmso stock, read-out: Solubility Rep2
[11] = aqueous buffer, kinetic from dmso stock, read-out: Solubility Rep3

| solubility [1, 8] [µM] | solubility [1, 9] [µM] | solubility [1, 10] [µM] | solubility [1, 11] [µM] | Microsomal stability Rep1 [2] [% remaining] | Microsomal stability Rep2 [2] [% remaining] | Microsomal stability No NADPH [2] [% remaining] | Microsomal stability Average [2] [% remaining] | Protein binding Average (Protein binding - Human) [% bound] | Protein binding Rep1 (Protein binding - Human) [% bound] | Protein binding Rep2 (Protein binding - Human) [% bound] | Plasma stability Average (Plasma stability - Human) | Compound | further results |
| --- | --- | --- | --- | --- | --- | --- | --- | --- | --- | --- | --- | --- | --- |
| 23 (≈ 9.68 µg/mL) | 23 (≈ 9.68 µg/mL) | 22 (≈ 9.26 µg/mL) | 26 (≈ 10.9 µg/mL) | 4.2 | 4.5 | 110.6 | 4.4 | 91.2 | 90.9 | 91.6 | 101.4 % remaining | Cc1ccc(Cl)cc1N(CC(=O)N(S)c1c(F)cccc1F)S(C)(=O)=O [BRD-K61250484-001-01-5] | – |
| 20 (≈ 7.08 µg/mL) | 23 (≈ 8.14 µg/mL) | 16 (≈ 5.66 µg/mL) | 21 (≈ 7.43 µg/mL) | 41.7 | 39.4 | 123.1 | 40.6 | 95.8 | 95.7 | 95.9 | 63.9 % remaining | CCn1cc(NC(=S)Nc2cc(Cl)ccc2OC)c(C(N)=O)n1 [BRD-K94248251] | – |
| 2.2 (≈ 0.759 µg/mL) | – | 1.9 (≈ 0.655 µg/mL) | 3.1 (≈ 1.07 µg/mL) | – | – | – | – | – | – | – | – | Clc1ccccc1C(c1ccccc1)(c1ccccc1)n1ccnc1 [Clotrimazole, reference compound] | solubility ([1]; read-out: Solubility Average): 2.6 µM (≈ 0.897 µg/mL); solubility ([1]; read-out: Solubility Rep2): 2.1 µM (≈ 0.724 µg/mL); solubility ([1]; read-out: Solubility Rep3): 2.0 µM (≈ 0.69 µg/mL) |
| 25 (≈ 13.7 µg/mL) | 23 (≈ 12.6 µg/mL) | 28 (≈ 15.3 µg/mL) | 24 (≈ 13.1 µg/mL) | 53.9 | 58.1 | 104.2 | 56.0 | 99.3 | 99.3 | 99.3 | 98.0 % remaining | C[C@H](CO)N1C[C@H](C)[C@H](CN(C)C(=O)Nc2ccc(F)cc2)Oc2ncc(-c3cc4ccccc4o3)cc2C1=O [Compound 106, 1-(((2R,3S)-8-(benzofuran-2-yl)-5-((R)-1-hydroxypropan-2-yl)-3-methyl-6-oxo-3,4,5,6-tetrahydro-2H-pyrido[2,3-b][1,5]oxazocin-2-yl)methyl)-3-(4-fluorophenyl)-1-methylurea] | proliferation of hepatocytes [4]: induced proliferation; albumin staining (immunofluorescent) (iHeps): dramatic increases; hepatocyte phenotype of treated iHeps (iHeps): more mature hepatocyte phenotypes; AFP secretion (ELISA) (iHeps; treatment from day 21, 9 days): decreased; albumin secretion (ELISA) (iHeps; treatment from day 21, 9 days): increased |
| – | – | – | – | – | – | – | – | – | – | – | 0.5 % remaining and 0.4 % remaining | CC1CC(OC(=O)C(O)c2ccccc2)CC(C)(C)N1C (stereo not drawn) [Eucatropine, reference compound] | – |

The next lines start with the compound.

| Compound | solubility [1, 8] [µM] | solubility [1, 9] [µM] | solubility [1, 10] [µM] | solubility [1, 11] [µM] | Microsomal stability Rep1 [2] [% remaining] | Microsomal stability Rep2 [2] [% remaining] | Microsomal stability No NADPH [2] [% remaining] | Microsomal stability Average [2] [% remaining] | Protein binding Average (Protein binding - Human) [% bound] | Protein binding Rep1 (Protein binding - Human) [% bound] | Protein binding Rep2 (Protein binding - Human) [% bound] | Plasma stability Average (Plasma stability - Human) | further results |
| --- | --- | --- | --- | --- | --- | --- | --- | --- | --- | --- | --- | --- | --- |
| CCCCOc1cc(CC2CNC(=O)N2)ccc1OC (stereo not drawn) [BRD-A07207424-001-04-1] | > 100 | 112 (≈ 31.2 µg/mL) | 114 (≈ 31.7 µg/mL) | 104 (≈ 28.9 µg/mL) | 81.5 | 85.5 | 100.3 | 83.5 | 75.6 | 76.2 | 75.0 | 105.9 % remaining | – |
| CC(=O)Nc1ccc(Cc2ccc(NC(C)=O)cc2)cc1 [BRD-K44777625-001-01-9] | 40 (≈ 11.3 µg/mL) | 45 (≈ 12.7 µg/mL) | 39 (≈ 11 µg/mL) | 36 (≈ 10.2 µg/mL) | 71 | 66.7 | 63 | 68.9 | 91.0 | 91.0 | 91.0 | 100.6 % remaining | – |
| CSc1ccccc1NC(=O)CN(c1cc(Cl)ccc1C)S(C)(=O)=O [Compound 102, 2-(N-(5-chloro-2-methylphenyl)methylsulfonamido)-N-(2-(methylthio)phenyl)acetamide] | – | – | – | – | – | – | – | – | – | – | – | – | proliferation Z score (hepatocyte nuclei count) [3]: 2.24; hit class in the high-throughput liver platform [3]: proliferation-only hit |
| CCCCC[C@H](O)/C=C/[C@H]1[C@H](O)CC(=O)[C@@H]1C/C=C\CCCC(=O)O [PGE2, Prostaglandin E2, reference compound] | – | – | – | – | – | – | – | – | – | – | – | – | hit class in the high-throughput liver platform [3]: FPH |
| CCCCOc1cc(CC2CNC(=O)N2)ccc1OC (stereo not drawn) [PH1, 4-(3-butoxy-4-methoxybenzyl)imidazolidin-2-one] | – | – | – | – | – | – | – | – | – | – | – | – | liver size compared to DMSO-treated controls [5]: increased; embryonic liver size / liver mass after APAP compared to controls [6]: mitigated APAP-induced loss of liver mass; differentiation of iPS-derived endothelial cells (nitric oxide) [7]: induce differentiation |
